According to patent US9505745B2, “Enhancer of zeste homolog 2 inhibitors” (GlaxoSmithKline Intellectual Property (No.2) Limited, priority 2013, dated 2016):
Counter-ions that a name gives are not always drawn.

Key:
[1] = target: T1, EZH2 within the PRC2 complex (Homo sapiens (Human), UniProt Q15910); assay: EZH2 methyltransferase SPA, mononucleosome substrate (Assay Protocol 1); format: biochemical; conditions: HeLa mononucleosome substrate, 3H-SAM, ≦10 nM approaches limit of detection
Description: Compounds contained herein were evaluated for their ability to inhibit the methyltransferase activity of EZH2 within the PRC2 complex. Human PRC2 complex was prepared by co-expressing each of the 5 member proteins (FLAG-EZH2, EED, SUZ12, RbAp48, AEBP2) in Sf9 cells followed by co-purification. Enzyme activity was measured in a scintillation proximity assay (SPA) where a tritiated methyl group is transferred from 3H-SAM to a lysine residue on Histone H3 of a mononucleosome, purified from HeLa cells. Mononucleosomes were captured on SPA beads and the resulting signal is read on a ViewLux plate reader.
Part A. Compound Preparation
• 1. Prepare 10 mM stock of compounds from solid in 100% DMSO. • 2. Set up an 11-point serial dilution (1:3 dilution, top concentration 10 mM) in 100% DMSO for each test compound in a 384 well plate leaving columns 6 and 18 for DMSO controls. • 3. Dispense 100 nL of compound from the dilution plate into reaction plates (Grenier Bio-One, 384-well, Cat#784075). Part B. Reagent Preparation Prepare the following solutions: • 1. 50 mM Tris-HCl, pH 8: Per 1 L of base buffer, combine 1 M Tris-HCl, pH 8 (50 mL) and distilled water (950 mL). • 2. 1× Assay Buffer: Per 10 mL of 1× Assay Buffer, combine 50 mM Tris-HCl, pH 8 (9958 uL), 1 M MgCl2 (20 uL), 2 M DTT (20 uL), and 10% Tween-20 (2 uL) to provide a final concentration of 50 mM Tris-HCl, pH 8, 2 mM MgCl2, 4 mM DTT, 0.002% Tween-20. • 3. 2× Enzyme Solution: Per 10 mL of 2× Enzyme Solution, combine 1× Assay Buffer and PRC2 complex to provide a final enzyme concentration of 10 nM. • 4. SPA Bead Suspension: Per 1 mL of SPA Bead Suspension, combine PS-PEI coated LEADSeeker beads (40 mg) and H2O (1 mL) to provide a final concentration of 40 mg/mL. • 5. 2× Substrate Solution: Per 10 mL of 2× Substrate Solution, combine 1× Assay Buffer (9728.55 uL), 800 ug/mL mononucleosomes (125 uL), 1 mM cold SAM (4 uL), and 7.02 uM 3H-SAM (142.45 uL; 0.55 mCi/mL) to provide a final concentration of 5 ug/mL nucleosomes, 0.2 uM cold SAM, and 0.05 uM 3H-SAM. • 6. 2.67× Quench/Bead Mixture: Per 10 mL of 2.67× Quench/Bead Mixture, combine ddH2O (9358 uL), 10 mM cold SAM (267 uL), 40 mg/mL Bead Suspension (375 uL) to provide a final concentration of 100 uM cold SAM and 0.5 mg/mL SPA beads. Part C. Assay Reaction in 384-well Grenier Bio-One Plates Compound Addition • 1. Dispense 100 nL/well of 100× Compound to test wells (as noted above). • 2. Dispense 100 nL/well of 100% DMSO to columns 6 & 18 for high and low controls, respectively. Assay • 1. Dispense 5 uL/well of 1× Assay Buffer to column 18 (low control reactions). • 2. Dispense 5 uL/well of 2× Enzyme Solution to columns 1-17, 19-24. • 3. Spin assay plates for ˜1 min at 500 rpm. • 4. Stack the assay plates, covering the top plate. • 5. Incubate the compound/DMSO with the enzyme for 30 min at room temperature. • 6. Dispense 5 uL/well of 2× Substrate Solution to columns 1-24. • 7. Spin assay plates for ˜1 min at 500 rpm. • 8. Stack the assay plates, covering the top plate. • 9. Incubate the assay plates at room temperature for 1 hour. Quench/Bead Addition • 1. Dispense 5 uL/well of the 3× Quench/Bead Mixture to columns 1-24. • 2. Seal the top of each assay plate with adhesive TopSeal. • 3. Spin assay plates for ˜1 min at 500 rpm. • 4. Equilibrate the plates for >20 min. Read plates • 1. Read the assay plates on the Viewlux Plate Reader utilizing the 613 nm emission filter with a 300 s read time.
Reagent addition can be done manually or with automated liquid handler. • The final DMSO concentration in this assay is 1%. • The positive control is in column 6; negative control is in column 18. • Final starting concentration of compounds is 100 µM. Results
Percent inhibition was calculated relative to the DMSO control for each compound concentration and the resulting values were fit using standard IC50 fitting parameters within the ABASE data fitting software package.

[2] = target: T1, EZH2 within the PRC2 complex; assay: EZH2 methyltransferase SPA, biotinylated histone H3K27 peptide substrate (Assay Protocol 2); format: biochemical; conditions: 3H-SAM, ≦10 nM approaches limit of detection
Procedure, shortened: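 Five-member human PRC2 complex (FLAG-EZH2, EED, SUZ12, RbAp48, AEBP2) co-expressed in Sf9 cells, 1 nM final, with 10 uM biotinylated H3K27 peptide, 0.15 uM 3H-SAM plus 2.85 uM cold SAM, pH 8, 60 min at rt. Quenched with cold SAM; SPA signal; IC50 from 11-point curves vs DMSO.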

T1 sequence (Q15910 whole entry): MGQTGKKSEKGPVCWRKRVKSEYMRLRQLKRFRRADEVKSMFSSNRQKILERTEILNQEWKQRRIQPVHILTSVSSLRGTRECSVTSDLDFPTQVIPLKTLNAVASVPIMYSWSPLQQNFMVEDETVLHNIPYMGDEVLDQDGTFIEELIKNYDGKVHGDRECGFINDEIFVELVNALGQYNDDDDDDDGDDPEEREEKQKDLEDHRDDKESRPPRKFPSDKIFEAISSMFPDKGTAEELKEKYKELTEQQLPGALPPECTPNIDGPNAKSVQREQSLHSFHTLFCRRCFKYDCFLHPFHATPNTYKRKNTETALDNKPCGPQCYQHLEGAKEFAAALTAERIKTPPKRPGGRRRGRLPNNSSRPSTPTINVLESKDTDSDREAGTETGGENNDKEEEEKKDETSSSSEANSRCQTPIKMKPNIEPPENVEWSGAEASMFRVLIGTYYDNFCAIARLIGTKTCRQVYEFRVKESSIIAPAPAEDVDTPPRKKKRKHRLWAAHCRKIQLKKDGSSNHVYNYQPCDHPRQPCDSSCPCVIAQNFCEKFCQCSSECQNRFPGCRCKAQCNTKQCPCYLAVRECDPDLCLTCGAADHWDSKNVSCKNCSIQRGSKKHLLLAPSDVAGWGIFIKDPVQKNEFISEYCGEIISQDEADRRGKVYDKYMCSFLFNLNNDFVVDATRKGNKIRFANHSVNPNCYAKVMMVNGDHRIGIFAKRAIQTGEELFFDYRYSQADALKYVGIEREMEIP
T1 sequence (O75530 whole entry partner): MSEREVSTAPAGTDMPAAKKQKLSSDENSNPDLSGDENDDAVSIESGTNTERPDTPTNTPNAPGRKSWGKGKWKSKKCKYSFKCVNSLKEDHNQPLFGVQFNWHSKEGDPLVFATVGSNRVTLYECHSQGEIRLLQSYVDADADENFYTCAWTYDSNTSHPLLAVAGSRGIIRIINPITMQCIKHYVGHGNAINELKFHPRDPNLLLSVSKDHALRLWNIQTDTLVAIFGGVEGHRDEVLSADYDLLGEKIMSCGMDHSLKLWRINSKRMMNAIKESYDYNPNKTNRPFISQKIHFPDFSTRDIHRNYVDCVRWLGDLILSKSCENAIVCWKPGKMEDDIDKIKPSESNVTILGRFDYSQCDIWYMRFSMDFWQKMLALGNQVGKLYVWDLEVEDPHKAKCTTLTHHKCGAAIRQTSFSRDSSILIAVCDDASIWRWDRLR
T1 sequence (Q15022 whole entry partner): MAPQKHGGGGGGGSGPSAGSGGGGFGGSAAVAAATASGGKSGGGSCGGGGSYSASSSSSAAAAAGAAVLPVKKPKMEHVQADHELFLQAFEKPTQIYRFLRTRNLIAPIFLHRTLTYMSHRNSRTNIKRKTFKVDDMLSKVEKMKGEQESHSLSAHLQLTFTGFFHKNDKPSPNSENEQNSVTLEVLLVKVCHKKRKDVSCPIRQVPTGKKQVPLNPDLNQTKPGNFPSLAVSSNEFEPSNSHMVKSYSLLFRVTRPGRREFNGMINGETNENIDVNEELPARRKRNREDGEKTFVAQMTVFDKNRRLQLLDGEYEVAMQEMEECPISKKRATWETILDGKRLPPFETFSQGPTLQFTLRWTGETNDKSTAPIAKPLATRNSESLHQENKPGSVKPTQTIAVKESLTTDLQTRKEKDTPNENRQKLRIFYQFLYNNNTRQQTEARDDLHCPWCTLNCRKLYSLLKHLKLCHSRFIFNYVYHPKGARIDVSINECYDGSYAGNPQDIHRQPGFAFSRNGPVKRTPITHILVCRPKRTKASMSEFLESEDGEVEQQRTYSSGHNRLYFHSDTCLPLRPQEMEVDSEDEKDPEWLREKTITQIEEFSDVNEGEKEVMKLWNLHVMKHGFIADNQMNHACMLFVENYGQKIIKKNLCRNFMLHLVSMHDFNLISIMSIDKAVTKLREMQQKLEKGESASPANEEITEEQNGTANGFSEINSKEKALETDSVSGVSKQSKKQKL
T1 sequence (Q09028 whole entry partner): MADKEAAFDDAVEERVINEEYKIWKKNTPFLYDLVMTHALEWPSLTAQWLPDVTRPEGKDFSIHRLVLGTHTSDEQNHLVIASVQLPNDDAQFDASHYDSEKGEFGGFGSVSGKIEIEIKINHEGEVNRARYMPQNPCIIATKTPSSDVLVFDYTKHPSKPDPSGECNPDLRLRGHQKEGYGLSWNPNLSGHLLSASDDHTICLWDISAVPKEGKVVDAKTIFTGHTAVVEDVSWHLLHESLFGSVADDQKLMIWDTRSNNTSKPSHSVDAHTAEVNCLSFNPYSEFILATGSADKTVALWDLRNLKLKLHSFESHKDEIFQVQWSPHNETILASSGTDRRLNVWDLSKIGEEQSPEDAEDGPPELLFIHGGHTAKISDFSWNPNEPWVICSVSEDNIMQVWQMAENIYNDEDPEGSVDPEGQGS
T1 sequence (Q6ZN18 whole entry partner): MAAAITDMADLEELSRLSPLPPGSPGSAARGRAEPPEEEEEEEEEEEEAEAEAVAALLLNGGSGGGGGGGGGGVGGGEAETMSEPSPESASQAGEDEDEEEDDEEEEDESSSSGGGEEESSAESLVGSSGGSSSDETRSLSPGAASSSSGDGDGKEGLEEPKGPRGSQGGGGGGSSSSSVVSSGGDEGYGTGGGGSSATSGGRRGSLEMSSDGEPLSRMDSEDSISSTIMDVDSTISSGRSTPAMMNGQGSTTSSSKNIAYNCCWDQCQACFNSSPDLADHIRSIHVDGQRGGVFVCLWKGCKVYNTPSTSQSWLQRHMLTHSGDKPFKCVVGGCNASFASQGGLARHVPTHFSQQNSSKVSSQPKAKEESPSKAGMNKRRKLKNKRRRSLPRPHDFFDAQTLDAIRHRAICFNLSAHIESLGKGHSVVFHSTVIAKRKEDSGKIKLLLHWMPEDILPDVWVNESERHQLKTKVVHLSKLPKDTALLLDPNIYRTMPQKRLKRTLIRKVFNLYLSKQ

CCN(c1scc(C(=O)NCc2c(C)cc(C)[nH]c2=O)c1C)C1CCNCC1 [Example 12, N-((4,6-dimethyl-2-oxo-1,2-dihydropyridin-3-yl)methyl)-5-(ethyl(piperidin-4-yl)amino)-4-methylthiophene-3-carboxamide hydrochloride]
IC50 [1]: ≤ 10 nM | IC50 [2]: 20 nM

CCN(c1csc(C(=O)NCc2c(C)cc(C)[nH]c2=O)c1C)C1CCOCC1 [Example 2, N-((4,6-Dimethyl-2-oxo-1,2-dihydropyridin-3-yl)methyl)-4-(ethyl(tetrahydro-2H-pyran-4-yl)amino)-3-methylthiophene-2-carboxamide]
IC50 [1]: 63 nM | IC50 [2]: 200 nM

CCC(c1scc(C(=O)NCc2c(C)cc(C)[nH]c2=O)c1C)N1CCC(N(C)C)CC1 (centres unmarked) [Example 28, N-((4,6-dimethyl-2-oxo-1,2-dihydropyridin-3-yl)methyl)-5-(1-(4-(dimethylamino)piperidin-1-yl)propyl)-4-methylthiophene-3-carboxamide]
IC50 [1]: 19 nM | IC50 [2]: 63 nM

CCN(c1scc(C(=O)NCc2c(OC)cc(C)[nH]c2=O)c1C)[C@H]1CC[C@H](N(C)C)CC1 [Example 18, 5-(((trans)-4-(Dimethylamino)cyclohexyl)(ethyl)amino)-N-((4-methoxy-6-methyl-2-oxo-1,2-dihydropyridin-3-yl)methyl)-4-methylthiophene-3-carboxamide]
IC50 [1]: ≤ 10 nM | IC50 [2]: 13 nM

CCN(c1scc(C(=O)NCc2c(C)cc(C(F)(F)F)[nH]c2=O)c1C)[C@H]1CC[C@H](N(C)C)CC1 [Example 17, 5-(((trans)-4-(Dimethylamino)cyclohexyl)(ethyl)amino)-4-methyl-N-((4-methyl-2-oxo-6-(trifluoromethyl)-1,2-dihydropyridin-3-yl)methyl)thiophene-3-carboxamide]
IC50 [1]: 316 nM | IC50 [2]: 630 nM

CCCc1cc(C)[nH]c(=O)c1CNC(=O)c1csc(N(CC)[C@H]2CC[C@H](N(C)C)CC2)c1C [Example 16, 5-(((trans)-4-(Dimethylamino)cyclohexyl)(ethyl)amino)-4-methyl-N-((6-methyl-2-oxo-4-propyl-1,2-dihydropyridin-3-yl)methyl)thiophene-3-carboxamide]
IC50 [1]: ≤ 10 nM | IC50 [2]: 25 nM

CCN(c1sc(Br)c(C(=O)NCc2c(C)cc(C)[nH]c2=O)c1C)C1CCOCC1 [Example 19, 2-Bromo-N-((4,6-dimethyl-2-oxo-1,2-dihydropyridin-3-yl)methyl)-5-(ethyl(tetrahydro-2H-pyran-4-yl)amino)-4-methylthiophene-3-carboxamide]
IC50 [1]: ≤ 10 nM | IC50 [2]: 20 nM

Cc1cc(C)c(CNC(=O)c2cnn(-c3ccccc3)c2C)c(=O)[nH]1 [Example 9, N-((4,6-dimethyl-2-oxo-1,2-dihydropyridin-3-yl)methyl)-5-methyl-1-phenyl-1H-pyrazole-4-carboxamide]
IC50 [1]: 20000 nM | IC50 [2]: 63100 nM

Cc1cc(C)c(CNC(=O)c2cnn(CC3CCOCC3)c2C)c(=O)[nH]1 [Example 10, N-((4,6-dimethyl-2-oxo-1,2-dihydropyridin-3-yl)methyl)-5-methyl-1-((tetrahydro-2H-pyran-4-yl)methyl)-1H-pyrazole-4-carboxamide]
IC50 [1]: 15800 nM | IC50 [2]: ≥ 100000 nM

Cc1cc(C)c(CNC(=O)c2csc(C(O)C3CCNCC3)c2C)c(=O)[nH]1 (centres unmarked) [Example 21, N-((4,6-dimethyl-2-oxo-1,2-dihydropyridin-3-yl)methyl)-5-(hydroxy(piperidin-4-yl)methyl)-4-methylthiophene-3-carboxamide]
IC50 [1]: 100 nM | IC50 [2]: 316 nM

CCN(c1scc(C(=O)NCc2c(C)cc(C)n(C)c2=O)c1C)C1CCOCC1 [Example 31, 5-(Ethyl(tetrahydro-2H-pyran-4-yl)amino)-4-methyl-N-((1,4,6-trimethyl-2-oxo-1,2-dihydropyridin-3-yl)methyl)thiophene-3-carboxamide]
IC50 [1]: 100 nM | IC50 [2]: 794 nM

CCN(c1ccc(C(=O)NCc2c(C)cc(C)[nH]c2=O)s1)C1CCOCC1 [Example 30, N-((4,6-Dimethyl-2-oxo-1,2-dihydropyridin-3-yl)methyl)-5-(ethyl(tetrahydro-2H-pyran-4-yl)amino)thiophene-2-carboxamide]
IC50 [1]: 39800 nM | IC50 [2]: ≥ 100000 nM

Cc1cc(C)c(CNC(=O)c2csc(-c3cnn(C4CCNCC4)c3)c2C)c(=O)[nH]1 [Example 23, N-((4,6-dimethyl-2-oxo-1,2-dihydropyridin-3-yl)methyl)-4-methyl-5-(1-(piperidin-4-yl)-1H-pyrazol-4-yl)thiophene-3-carboxamide]
IC50 [1]: 501 nM | IC50 [2]: 3980 nM

Cc1cc(C)c(CNC(=O)c2scc(OC(C)C)c2C)c(=O)[nH]1 [Example 1, N-((4,6-dimethyl-2-oxo-1,2-dihydropyridin-3-yl)methyl)-4-isopropoxy-3-methylthiophene-2-carboxamide]
IC50 [1]: 3160 nM | IC50 [2]: 25100 nM

CCC(c1scc(C(=O)NCc2c(C)cc(C)[nH]c2=O)c1C)N1CCOCC1 (centres unmarked) [Example 29, N-((4,6-dimethyl-2-oxo-1,2-dihydropyridin-3-yl)methyl)-4-methyl-5-(1-morpholinopropyl)thiophene-3-carboxamide]
IC50 [1]: 398 nM | IC50 [2]: 3160 nM

Cc1cc(C)c(CNC(=O)c2csc(C3CCN(C(=O)OC(C)(C)C)C3)c2C)c(=O)[nH]1 (centres unmarked) [Example 24, tert-Butyl 3-(4-(((4,6-dimethyl-2-oxo-1,2-dihydropyridin-3-yl)methyl)carbamoyl)-3-methylthiophen-2-yl)pyrrolidine-1-carboxylate]
IC50 [1]: 251 nM | IC50 [2]: 3980 nM

CCN(c1csc(C(=O)NCc2c(C)cc(C)[nH]c2=O)c1C)[C@H]1CC[C@@H](N(C)C)CC1 [Example 5, N-((4,6-dimethyl-2-oxo-1,2-dihydropyridin-3-yl)methyl)-4-(((cis)-4-(dimethylamino)cyclohexyl)(ethyl)amino)-3-methylthiophene-2-carboxamide]
IC50 [1]: 32 nM | IC50 [2]: 50 nM

CCN(c1scc(C(=O)NCc2c(C)cc(C)[nH]c2=O)c1C)[C@H]1CC[C@H](N(C)C)CC1 [Example 8, N-((4,6-dimethyl-2-oxo-1,2-dihydropyridin-3-yl)methyl)-5-(((trans)-4-(dimethylamino)cyclohexyl)(ethyl)amino)-4-methylthiophene-3-carboxamide]
IC50 [1]: ≤ 10 nM | IC50 [2]: 13 nM

Cc1cc(C)c(CNC(=O)c2csc(C(C)N3CCC(N(C)C)CC3)c2)c(=O)[nH]1 (centres unmarked) [Example 13, N-((4,6-dimethyl-2-oxo-1,2-dihydropyridin-3-yl)methyl)-5-(1-(4-(dimethylamino)piperidin-1-yl)ethyl)thiophene-3-carboxamide]
IC50 [1]: 316 nM | IC50 [2]: 2000 nM
